This is an account of results in patent publication US9029410B2, “Pharmaceutical compositions for the treatment of movement disorders” (Sarah Herzog Memorial Hospital Ezrath Nashim Association, priority 2003, dated 2015).

In one data set the test system is Sprague-Dewley rats. The experiment in a line: Effects of chronic haloperidol treatment on motor activity. Format: in vivo, rat. The procedure:
Rats were weighed biweekly throughout the study. Room temperature was maintained at 22±2° C.

Data set [1] has as its system neuroleptic sensitized monkeys. To be noted: cited from earlier work.
In data set [2] the test system is schizophrenia patients. Nature of the data set: PANSS, crossover trials of D-cycloserine (pooled). Conditions: mean ± sd. Format: in vivo, human. The procedure: (§1) Patients fulfilled criteria for treatment resistance used in previous trials of glycine and had been receiving stable doses of olanzapine or risperidone for at least 3 months before study entry. Medication doses remained fixed throughout the study.
(§2) Methods for this study are the same as in example 1, except that D-cycloserine (50 mg/d) was used for treatment. As previously, outcome was assessed using the PANSS, SAS and AIMS. In addition, the Schedule for Assessment of Negative Symptoms (SANS) was used to provide further assessment of negative symptoms. Data are pooled from two previously published studies (Heresco-Levy et al., 1998, 2002). Because analyses were confirmatory, one-tailed statistics were used throughout.

Data set [3] deals with schizophrenia patients. Nature of the data set: SAS, crossover trials of D-cycloserine (pooled). The format is in vivo, human. Here is the method: as §1, §2
Data set [4] has as its system schizophrenia patients. The experiment in a line: AIMS, crossover trials of D-cycloserine (pooled). Format: in vivo, human. The procedure: as §1, §2
Data set [5] relates to MPTP-treated monkeys. Conditions: low dose (320 or 1000 mg/kg as printed); cited from earlier work.
Data set [6] relates to MPTP-treated monkeys. To be noted: cited from earlier work.
The subject of data set [7] is schizophrenia patients. Nature of the data set: PANSS, crossover trial of D-serine. Conditions: mean ± sd. Further details: PANSS Positive Symptoms, treatment week 6: dose or concentration left out as unconfirmed. Format: in vivo, human. The text has this: (§3) The study was approved by the appropriate institutional review boards. Seventeen stable inpatients meeting DSM-IV criteria for schizophrenia and free of other axis I diagnoses or significant medical illness were enrolled in the study. Diagnosis was established on the basis of semistructured psychiatric interviews, review of all available medical records, and confirmation by two board-certified psychiatrists. […] Medication doses remained fixed throughout the study.
(§4) After complete description of the study, written informed consent was obtained from all participating patients. The double-blind, placebo-controlled, crossover study consisted of two random-order 6-week treatment arms (glycine 0.8 g/kg/day, or placebo), separated by a 2-week adjuvant treatment washout. Patients were assessed biweekly with the Positive and Negative Syndrome Scale (PANSS), Brief Psychiatric Rating Scale (BPRS), Simpson-Angus Rating Scale (SAS), and Abnormal Involuntary Movement Scale (AIMS) performed by one trained research psychiatrist, as previously described (3). CBC and SMA-20 measures were assessed biweekly throughout the study. Trough glycine and serine serum levels were assessed at baseline and at the end of the two treatment phases. Data were analyzed by repeated measures ANOVA with within group factor of study phase (glycine/placebo) and time within study phase (pre/post), and between group factor of treatment order.
(§5) Methods: Methods for this study are the same as in example 1, except that D-serine ([…]=approx. 2.1 g/day) was used for treatment. As previously, outcome was assessed using the PANSS, SAS and AIMS. In addition, the Schedule for Assessment of Negative Symptoms (SANS) was used to provide further assessment of negative symptoms. This represents an interim analysis of an ongoing study. Data were analyzed by between-treatment t-test of change scores during D-serine or placebo treatment. Data are analyzed only from subjects (n=23) who completed both study phases.

For data set [8], the system named is schizophrenia patients. The experiment in a line: SANS, crossover trial of D-serine. The format is in vivo, human.
Source text: as §3
as §4, with “The double-blind, placebo-controlled, crossover study consisted of two random-order 6-week treatment arms (glycine 0.8 g/kg/day, or placebo), separated by a 2-week adjuvant treatment washout.” left out, “order. […]” for “order.”

Data set [9] deals with schizophrenia patients. The experiment in a line: SAS, crossover trial of D-serine. Format: in vivo, human.
Source text: as §3, §4, §5

The subject of data set [10] is schizophrenia patients. The experiment in a line: AIMS, crossover trial of D-serine. Format: in vivo, human.
Source text: as §3, §4, §5

In data set [11] the test system is patients. To be noted: D-serine combined with clozapine; Tsai et al., 1999; cited from earlier work.
In data set [12] the test system is patients. Conditions: Tsai and Coyle '875; low baseline levels; cited from earlier work.
The subject of another data set is monkeys. To be noted: NR2A antagonist; cited from earlier work.
[13] abbreviates: D-cycloserine 50 mg/d, week 6, n=26.
Where [14] appears, read: D-cycloserine 50 mg/d, week 6 minus week 0.
[15] abbreviates: D-cycloserine phase, week 0, n=26.
[16] abbreviates: D-cycloserine 50 mg/d, week 6, mean ± sd, n=26.
Setting [17] is: D-cycloserine 50 mg/d, week 6 minus week 0, mean ± sd.
Setting [18] is: D-cycloserine phase, week 0, mean ± sd, n=26.
[19] abbreviates: D-serine phase, week 0, mean ± sd, n=23.
The mark [20] stands for this setting: D-serine, week 6, mean ± sd, n=23.
Setting [21] is: D-serine, week 6 minus week 0, mean ± sd.
Where [22] appears, read: during D-serine treatment, 6 weeks.

Molecules are shown by their SMILES.

`CCCCCCCCCC(=O)OC1(c2ccc(Cl)cc2)CCN(CCCC(=O)c2ccc(F)cc2)CC1` [haloperidol, haloperidol decanoate]: in the data set with Sprague-Dewley rats (haloperidol decanoate i.m. every four weeks, 24 weeks, p<0.001), the “Number of VCM episodes relative to rats that had received placebo” value was “approximately 4 fold”. Further, the “Mean time spent in immobility” value in the data set with Sprague-Dewley rats (haloperidol for 24 weeks, 5 minute observation interval, placebo 53.0±12.7) was 103.2 ± 7.8 s. The “Number of rearing episodes vs placebo” value with Sprague-Dewley rats (haloperidol for 24 weeks, p<0.0001) is listed as “significantly lower”. Further, in the data set on Sprague-Dewley rats (haloperidol for 24 weeks, p<0.17), the “Number of grooming episodes vs controls” value is reported as “did not differ”.

`CNC1(c2ccccc2Cl)CCCCC1=O` (centres unmarked) [ketamine]: in data set [1], the “Motor effects of administration” value was “induces bradykinesia, dystonia and salivation”.

`N[C@@H]1CONC1=O` [D-cycloserine]: in the data set with schizophrenia patients [2] (setting [13]), the “PANSS General Psychopathaology, week 6 within treatment phase” value is recorded as 53.8 ± 8.2; the “PANSS Negative symptoms, week 6 within treatment phase” value was determined as 31.4 ± 6.5; the “PANSS Positive symptoms, week 6 within treatment phase” value stood at 24.6 ± 4.1; the “PANSS Total Symptoms, week 6 within treatment phase” value was determined as 109.7 ± 15.8. In the data set with schizophrenia patients [2] (setting [14]), the “PANSS General Psychopathaology, Ä symptoms” value is −4.9 ± 6.2; the “PANSS Negative symptoms, Ä symptoms” value is reported as −3.2 ± 2.5; the “PANSS Positive symptoms, Ä symptoms” value was −2.1 ± 2.6; the “PANSS Total Symptoms, Ä symptoms” value was −10.2 ± 8.9. Further, in the data set on schizophrenia patients [2] (setting [15]), the “PANSS General Psychopathaology, week 0 within treatment phase” value came out at 58.7 ± 8.4; the “PANSS Negative symptoms, week 0 within treatment phase” value came to 34.6 ± 6.2; the “PANSS Positive symptoms, week 0 within treatment phase” value came out at 26.7 ± 4.5; the “PANSS Total Symptoms, week 0 within treatment phase” value was 120 ± 16.7. Further, in the data set with schizophrenia patients [3] (D-cycloserine 50 mg/d vs placebo, t=1.77, one tailed), the “Effect on Parkinsonian symptoms (SAS)” value is “nearly significant improvement”. In addition, in the data set on schizophrenia patients [3] (setting [16]), the “SAS, week 6 within treatment phase” value is reported as 3.6 ± 2.1. Moreover, the “SAS, Ä symptoms” value in the data set with schizophrenia patients [3] (setting [17]) is recorded as −0.7 ± 1.7. Further, the “SAS, week 0 within treatment phase” value in the data set on schizophrenia patients [3] (setting [18]) worked out at 4.3 ± 2.4. Also, the “Effect on dyskinetic symptoms (AIMS)” value in the data set on schizophrenia patients [4] (D-cycloserine 50 mg/d vs placebo, t=2.21, p<0.025, one tailed) is listed as “significant reduction”. In addition, in the data set on schizophrenia patients [4] (setting [16]), the “AIMS, week 6 within treatment phase” value turned out to be 3.9 ± 3. The “AIMS, Ä symptoms” value with schizophrenia patients [4] (setting [17]) was −0.8 ± 1.3. Besides, the “AIMS, week 0 within treatment phase” value in the data set with schizophrenia patients [4] (setting [18]) amounted to 4.7 ± 3.1. The “Variable delayed-response task (VDR) performance” value with MPTP-treated monkeys [5] is “significantly improved”. For the same compound, the “Bradykinesia, tremor or other core Parkinsonian symptoms” value with MPTP-treated monkeys [6] is “did not show improvement”.

Turning to `N[C@H](CO)C(=O)O` [D-serine], in the data set on schizophrenia patients [7] (D-serine phase, week 0, n=23), the “PANSS Cognitive symptoms, treatment week 0” value was found to be 8.5 ± 2.2; the “PANSS Depression, treatment week 0” value was found to be 5.3 ± 2.6; the “PANSS Excitement, treatment week 0” value stood at 1.6 ± 1.5; the “PANSS Negative symptoms, treatment week 0” value is listed as 3.9 ± 4.0. The “PANSS Positive Symptoms, treatment week 0” value in the data set on schizophrenia patients [7] (D-serine phase, week 0, n=23) stood at 4.2 ± 2.3. Besides, in the data set on schizophrenia patients [7] (D-serine, week 6, n=23), the “PANSS Cognitive symptoms, treatment week 6” value is 17.1 ± 2.7; the “PANSS Depression, treatment week 6” value worked out at 13.8 ± 2.2; the “PANSS Excitement, treatment week 6” value is 10.9 ± 1.4; the “PANSS Negative symptoms, treatment week 6” value was found to be 21.0 ± 3.5. Also, the “PANSS Positive Symptoms, treatment week 6” value with schizophrenia patients [7] (D-serine, week 6, n=23) amounted to 13.0 ± 2.3. Moreover, in the data set on schizophrenia patients [7] (D-serine, week 6 minus week 0), the “PANSS Cognitive symptoms, Δ symptoms” value is listed as −1.4 ± 1.3; the “PANSS Depression, Δ symptoms” value was −1.5 ± 1.8; the “PANSS Excitement, Δ symptoms” value is given as −0.7 ± 1.2; the “PANSS Negative symptoms, Δ symptoms” value is recorded as −2.9 ± 1.9. In addition, the “PANSS Positive Symptoms, Δ symptoms” value in the data set with schizophrenia patients [7] (D-serine, week 6 minus week 0) was −1.2 ± 1.1. Also, the “SANS Total (with globals), treatment week 6” value in the data set on schizophrenia patients [8] (week 6, mean ± sd, n=23) is 51.9 ± 8.0. For the same compound, in the data set on schizophrenia patients [8] (week 6 minus week 0, mean ± sd), the “SANS Total (with globals), Δ symptoms” value is reported as −9.0 ± 4.3. Moreover, the “SAS, treatment week 0” value in the data set on schizophrenia patients [9] (setting [19]) came out at 4.2 ± 1.4. The “SAS, treatment week 6” value with schizophrenia patients [9] (setting [20]) came out at 2.4 ± 0.8. Besides, in the data set with schizophrenia patients [9] (setting [21]), the “SAS, Δ symptoms” value is recorded as −1.8 ± 1.3. In the data set on schizophrenia patients [9] (setting [22]), the “Decline in Parkinsonian symptoms as rated by the SAS” value is recorded as 42%. The “AIMS, treatment week 0” value in the data set with schizophrenia patients [10] (setting [19]) is given as 3.0 ± 0.8. Besides, in the data set on schizophrenia patients [10] (setting [20]), the “AIMS, treatment week 6” value came to 1.6 ± 1.2. Besides, in the data set with schizophrenia patients [10] (setting [21]), the “AIMS, Δ symptoms” value is −1.4 ± 1.1. In the data set on schizophrenia patients [10] (setting [22]), the “Decline in dyskinetic symptoms as rated by the AIMS” value is recorded as 50%. The “Change in SAS or AIMS scores” value with patients [11] was “did not find significant change”.

Turning to `C[C@@H](N)C(=O)O` [D-alanine], in the data set on patients [12], the “Changes in SAS or AIMS scores” value is recorded as “no significant changes”.

With `CNCC(=O)O` [N-methylglycine], in the data set with patients [12], the “Changes in SAS or AIMS scores” value was “no significant changes”.

With `N[C@H](CC(=O)CP(=O)(O)O)C(=O)O` [MDL 100,453], the “Effect on symptoms of dyskinesia” value with monkeys is listed as “worsening symptoms of dyskinesia”.
